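1) Cells in 96-well plates. 2) Compound, 48 h, 5 concentrations. 3) Linear interpolation between surrounding doses. 4) Unreached endpoint = highest concentration. At the GI50, growth is halved.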 Calls of active or inactive are those of the source. No stated cut-off is given here; in the data, active = GI50 up to about 1.1 µM and inactive = higher.
Key:
Assay in all cases: inhibition of tumour cell growth, NCI panel, 48 h
[1] = system: 786-0
[2] = system: A498
[3] = system: A549
[4] = system: ACHN
[5] = system: CAKI-1
[6] = system: CCRF-CEM
[7] = system: COLO 205
[8] = system: DLD-1
[9] = system: DMS-114
[10] = system: DMS-273
[11] = system: EKVX
[12] = system: HCC 2998
[13] = system: HCT-116
[14] = system: HCT-15
[15] = system: HL-60
[16] = system: HOP-62
[17] = system: HOP-92
[18] = system: HT-29
[19] = system: IGROV-1
[20] = system: K562
[21] = system: KM-20L2
[22] = system: KM12
[23] = system: LOX IMVI
[24] = system: M19-MEL
[25] = system: MOLT-4
[26] = system: Malme-3M
[27] = system: NCI-H226
[28] = system: NCI-H23
[29] = system: NCI-H460
[30] = system: NCI-H522
[31] = system: OVCAR-3
[32] = system: OVCAR-4
[33] = system: OVCAR-5
[34] = system: OVCAR-8
[35] = system: RPMI-8226
[36] = system: RXF 393
[37] = system: SF-268
[38] = system: SF-295
[39] = system: SF-539
[40] = system: SK-MEL-28
[41] = system: SK-MEL-2
[42] = system: SK-MEL-5
[43] = system: SK-OV-3
[44] = system: SN12C
[45] = system: SNB-19
[46] = system: SNB-75
[47] = system: SNB-78
[48] = system: SW-620
[49] = system: TK-10
[50] = system: U-251
[51] = system: UACC-257
[52] = system: UACC-62
[53] = system: UO-31
[54] = system: BT-549
[55] = system: DU-145
[56] = system: Hs-578T
[57] = system: M14
[58] = system: MCF7
[59] = system: MDA-MB-231
[60] = system: MDA-MB-435
[61] = system: MDA-N
[62] = system: NCI/ADR-RES
[63] = system: PC-3
[64] = system: SR
[65] = system: T47D

O=C(/C=C/c1ccccc1O)c1ccccc1O
GI50 [1]: > 100 µM (inactive) | GI50 [2]: > 100 µM (inactive) | GI50 [3]: > 100 µM (inactive) | GI50 [4]: > 100 µM (inactive) | GI50 [5]: > 100 µM (inactive) | GI50 [6]: 5.74 µM (inactive) | GI50 [7]: > 100 µM (inactive) | GI50 [8]: > 100 µM (inactive) | GI50 [9]: 16.7 µM (inactive) | GI50 [10]: > 100 µM (inactive) | GI50 [11]: > 100 µM (inactive) | GI50 [12]: > 100 µM (inactive) | GI50 [13]: 78 µM (inactive) | GI50 [14]: 35.9 µM | GI50 [15]: > 100 µM (inactive) | GI50 [16]: > 100 µM (inactive) | GI50 [17]: 46.7 µM (inactive) | GI50 [18]: > 100 µM (inactive) | GI50 [19]: > 100 µM (inactive) | GI50 [20]: 19.8 µM (inactive) | GI50 [21]: > 100 µM (inactive) | GI50 [22]: > 100 µM (inactive) | GI50 [23]: > 100 µM (inactive) | GI50 [24]: > 100 µM (inactive) | GI50 [25]: 18.7 µM (inactive) | GI50 [26]: > 100 µM (inactive) | GI50 [27]: 58.9 µM (inactive) | GI50 [28]: 76.2 µM (inactive) | GI50 [29]: > 100 µM (inactive) | GI50 [30]: > 100 µM (inactive) | GI50 [31]: > 100 µM (inactive) | GI50 [32]: > 100 µM (inactive) | GI50 [33]: > 100 µM (inactive) | GI50 [34]: > 100 µM (inactive) | GI50 [35]: 40 µM (inactive) | GI50 [36]: > 100 µM (inactive) | GI50 [37]: > 100 µM (inactive) | GI50 [38]: 51.6 µM (inactive) | GI50 [39]: > 100 µM (inactive) | GI50 [40]: > 100 µM (inactive) | GI50 [41]: 80.9 µM (inactive) | GI50 [42]: > 100 µM (inactive) | GI50 [43]: > 100 µM (inactive) | GI50 [44]: > 100 µM (inactive) | GI50 [45]: > 100 µM (inactive) | GI50 [46]: > 100 µM (inactive) | GI50 [47]: > 100 µM (inactive) | GI50 [48]: > 100 µM (inactive) | GI50 [49]: > 100 µM (inactive) | GI50 [50]: > 100 µM (inactive) | GI50 [51]: > 100 µM (inactive) | GI50 [52]: > 100 µM (inactive) | GI50 [53]: > 100 µM (inactive)

CC(=O)O/C=C\OC1CCCC1(c1ccccc1)c1ccccc1 (configuration not stated)
GI50 [1]: 3.21 µM (inactive) | GI50 [2]: 18 µM (inactive) | GI50 [3]: 20.4 µM (inactive) | GI50 [4]: 2.03 µM (inactive) | GI50 [54]: 1.95 µM (inactive) | GI50 [5]: 4.5 µM (inactive) | GI50 [6]: 2.37 µM (inactive) | GI50 [7]: 4.08 µM (inactive) | GI50 [55]: 3.95 µM (inactive) | GI50 [11]: 7.5 µM (inactive) | GI50 [12]: 8.91 µM (inactive) | GI50 [13]: 1.98 µM (inactive) | GI50 [14]: 2.13 µM | GI50 [15]: 1.34 µM (inactive) | GI50 [16]: 12.4 µM (inactive) | GI50 [17]: 1.82 µM (inactive) | GI50 [18]: 2.91 µM (inactive) | GI50 [56]: 3.1 µM (inactive) | GI50 [19]: 2.24 µM (inactive) | GI50 [20]: 2.16 µM (inactive) | GI50 [22]: 3.49 µM (inactive) | GI50 [23]: 1.63 µM (inactive) | GI50 [57]: 2.47 µM (inactive) | GI50 [58]: 2.21 µM (inactive) | GI50 [59]: 2.4 µM (inactive) | GI50 [60]: 1.96 µM (inactive) | GI50 [61]: 2.31 µM (inactive) | GI50 [25]: 2.79 µM (inactive) | GI50 [26]: 2.18 µM (inactive) | GI50 [27]: 9.04 µM (inactive) | GI50 [28]: 2.49 µM (inactive) | GI50 [29]: 7.26 µM (inactive) | GI50 [30]: 10.1 µM (inactive) | GI50 [62]: 2.84 µM (inactive) | GI50 [31]: 2.9 µM (inactive) | GI50 [32]: 2.1 µM (inactive) | GI50 [33]: 7.13 µM (inactive) | GI50 [34]: 2.42 µM (inactive) | GI50 [63]: 3.12 µM (inactive) | GI50 [35]: 2.65 µM (inactive) | GI50 [36]: 2.3 µM (inactive) | GI50 [37]: 2.92 µM (inactive) | GI50 [38]: 8.11 µM (inactive) | GI50 [39]: 1.73 µM (inactive) | GI50 [40]: 2.1 µM (inactive) | GI50 [41]: 3.57 µM (inactive) | GI50 [42]: 2.61 µM (inactive) | GI50 [43]: 14.4 µM (inactive) | GI50 [44]: 3.32 µM (inactive) | GI50 [45]: 11.2 µM (inactive) | GI50 [46]: 3.35 µM (inactive) | GI50 [64]: 1.98 µM (inactive) | GI50 [48]: 2.42 µM (inactive) | GI50 [65]: 2.47 µM (inactive) | GI50 [49]: 3.48 µM (inactive) | GI50 [50]: 3.52 µM (inactive) | GI50 [51]: 3.65 µM (inactive) | GI50 [52]: 5.27 µM (inactive) | GI50 [53]: 1.94 µM (inactive)

Source: ChEMBL document CHEMBL1201862, “PubChem BioAssay data set” (2004)
